Results: patent US5317022A, “Pharmaceutical composition and use” (priority 1991, dated 1994)
Read-outs that look alike come from different tables or passages of the source.

How the values were obtained:
[1] = test system: rat; experiment: analgetic effect, hot plate (rat); assay type: in vivo
[2] = test system: rat; experiment: analgetic effect, tail flick (rat); assay type: in vivo
[3] = test system: rats; experiment: sedative (narcosis potentiating) effect, Inactine base narcotic, rats; assay type: in vivo
Experimental: Inactine (35 mg/kg) was used as a base narcotic.
*ED500 % = dose increasing narcosis to five times the control.

[4] = test system: mice; experiment: analgetic effect, writhing test (mice); assay type: in vivo
[5] = test system: rat; conditions: dose giving 100% activity
[6] = test system: mice; experiment: physical dependency, jumping test on mice; conditions: treatment 7 x 100 mg/kg ip.; naloxone 50 mg/kg ip.
[7] = test system: rabbits; experiment: effects on respiration on conscious rabbits (III.5, Marey-drum)
Experimental: Investigation was carried out on conscious rabbits of both sexes and of 3-4 kg weight by way of a Marey-drum. Frequency and amplitude of respiration were quantitatively evaluated.

[8] = test system: rabbits; experiment: effect on respiration on conscious rabbits (III.6, type A/B/C tests); assay type: in vivo; set-up: resp. change ampl.: unit not given here
Experimental: The method as described above in Example III.5 was used on conscious rabbits of 2,5-3 kg weight. Registration was continued for 3-4 hours. The samples were injected under the skin of the neck and the respiration parameters were registered at intervals of 10 minutes.

[9] = test system: mice; conditions: in vivo
[10] = molecular target: (^3 H)naloxone binding sites; experiment: competition binding assay with (3H)naloxone on rat brain membranes; conditions: membranes incubated with (3H)naloxone 1 nM and increasing ligand concentrations; read-out: Affinity constants (Ki nM) in competition assays
Experimental: (§1) Membrane preparation: A crude membrane fraction from rat brain (PVG/C strain) was prepared [Mol. Pharm.11 (1975) 340-351 and the protein content was defined [Anal. Biochem. 72(1976) 248-254).
(§2) The membrane suspension (200-400 μg protein) was incubated with the specific radioligand for 1 hour on ice. Incubations were terminated by rapid filtration under vacuo followed by washing with ice cold tris HCl buffer (50 mM, pH 7,4). Radioactivity was measured in a toluene based scintillation mixture on a LKB Minibeta Liquid Scintillation Spectrophotometer. Nonspecific binding was defined in the presence of 10 μM unlabeled naloxone. All assays were performed in triplicate and repeated several times. Ki values were determined from equilibrium experiments and calculated with the Tshang-Prusov equation. The data were evaluated using the Ligand program [Anal. Biol. Chem. 107 (1980) 220-239](Data shown on Table III/1).

[11] = test system: rat; experiment: animal or person; conditions: read-out: algolyt. test (rat) 100% activity
[12] = test system: rats
[13] = molecular target: (^3 H)naloxone binding sites; experiment: wash-resistant binding of (3H)naloxone, rat brain membranes; conditions: preincubated with (3H)naloxone 1 nM and test compound; remaining specific binding after several washings; average of 2-4 data; compound.HCl; read-out: Ki (nM), affinity constants
Experimental: as §1, §2
After preincubation a thorough washing was performed. [Life Sci. 32 (1983) 2777-2784]. Control values are represented by the specific binding of (3H)naloxone to membranes preincubated with a buffer and treated in the same way. Heterologous displacement experiments were used to evaluate the affinity of the investigated compounds for (^3 H)naloxone binding sites.

[14] = s.c. on rats, Inactine 35 mg/kg, dose as base
[15] = type A: OH 0.25 mg/kg s.c., 20 min
[16] = type A: OH 0.25 mg/kg s.c., 30 min
[17] = type A: OH 0.25 mg/kg s.c., then morphine 5 mg/kg s.c., 10 min
[18] = type C: OH 0.25 mg/kg with morphine 5 mg/kg s.c., 20 min
[19] = OS 0.025 mg/kg s.c. (20 min), morphine 5 mg/kg s.c., 20 min
[20] = OS 0.025 mg/kg s.c. (30 min), morphine 5 mg/kg s.c., 30 min
[21] = OS 0.025 mg/kg s.c., 10 min (before morphine)
[22] = OS 0.50 mg/kg s.c. (30 min), morphine 20 mg/kg s.c., 20 min

CN1CC[C@]23c4c5ccc(O)c4O[C@H]2[C@@H](O)C=C[C@H]3[C@H]1C5 [Morphine, reference compound]
hot plate (rat) ED50 ([1]; rat): 3,6 mg/kg
tail flick (rat) ED50 ([2]; rat): 1,8 mg/kg
ED500 % (dose increasing narcosis to five times the control) [3, 14]: 1,75 mg/kg
writhing test (mice) ED50 ([4]; mice): 0,45 mg/kg
algolyt. test (rat) 100% activity [5]: 15,0 mg/kg
% relation of jumping animals [6]: 100%
number of jumps/mouse (average) [6]: 34,5

COc1ccc2c3c1O[C@H]1C(=NN)CC[C@@]4(O)[C@@H](C2)N(C)CC[C@]314 [Oxycodone hydrazone, 14-OH-DIHYDROCODEINONE-HYDRAZONE (TRANS)]
volume and frequency of respiration (in words) ([7]; 50 μg/kg dose): increases both the volume and the frequency of respiration
respiration effect (printed over two lines: slight reversion) ([7]; rabbit, in vivo): reversion
reversal of morphine respiratory depression (in words) ([7]; rabbit, in vivo): a partial reversal takes place
respiration frequency/min. ([7]; rabbit, in vivo, sc): .uparw.
respiration volume ([7]; rabbit, in vivo, sc): .uparw.
resp. change ampl. [8, 15]: +20
resp. change fr/min [8, 15]: +150
resp. change ampl. [8, 16]: +20
resp. change fr/min [8, 16]: +127
resp. change ampl. [8, 17]: -30
resp. change fr/min [8, 17]: -36
resp. change ampl. [8, 18]: +10
resp. change fr/min [8, 18]: +30
ED50 ([1]; Rattus norvegicus; read-out: hot plate (rat) ED50): 0.46 mg/kg
ED50 ([2]; Rattus norvegicus; read-out: tail flick (rat) ED50): 0.65 mg/kg
number of jumps/mouse (average) [9]: 1,5
% relation of jumping animals ([9]; mouse): 50%
ED500 % (dose increasing narcosis to five times the control) ([3]; rat, in vivo): 0,45 mg/kg
potentiation of Inactine narcosis (in words) ([3]; rat, in vivo): most effectively prolongated
ED50 ([4]; Mus musculus; read-out: writhing test (mice) ED50): 0.35 mg/kg
Ki [10]: 800 nM
ED100 [11]: 10 mg/kg

COc1ccc2c3c1O[C@H]1C(=O)CC[C@@]4(O)[C@@H](C2)N(C)CC[C@]314 [Oxycodone, reference compound]
respiration effect ([7]; 10-2500 μg/kg i.v., s.c.): depression
respiration frequency/min. ([7]; 10-2500 μg/kg i.v., s.c.): .dwnarw.
respiration volume ([7]; 10-2500 μg/kg i.v., s.c.): .dwnarw.
influence on the respiratory depression effect of morphine (in words) ([7]; rabbit, in vivo): unambiguously potentiate the respiratory depression effect of morphine
respiratory depression by the compound alone (in words) ([7]; s.c., dihydrocodeinone 50-2500 μg/kg, oxycodone 10-2500 μ/kg): cause respiratory depression
change of morphine toxicity (in words) ([12]; administered together with morphine, s.c.): potentiate toxicity of morphine
Combination LD50 / morphine LD50 ([12]; test substance 10 mg/kg s.c.): 0,57
hot plate (rat) ED50 ([1]; rat): 0.92 mg/kg
tail flick (rat) ED50 ([2]; rat): 0,68 mg/kg
ED500 % (dose increasing narcosis to five times the control) [3, 14]: 1,2 mg/kg
writhing test (mice) ED50 ([4]; mice): 0,45 mg/kg
algolyt. test (rat) 100% activity [5]: 2,2 mg/kg

COc1ccc2c3c1O[C@H]1C(=NNC(N)=O)CC[C@@]4(O)[C@@H](C2)N(C)CC[C@]314 [Oxycodone-semicarbazone, 14-OH-DIHYDROCODEINONE-SEMICARBAZONE (TRANS)]
respiration effect (printed over two lines: morphine-inhibition) ([7]; rabbit, in vivo): inhibition
respiration frequency/min. ([7]; rabbit, in vivo): .uparw.
respiration volume ([7]; rabbit, in vivo): .uparw..dwnarw.
Ki [13]: 588 nM
resp. change ampl. ([8]; OS 0.01 mg/kg s.c., 10 min): 0
resp. change fr/min ([8]; OS 0.01 mg/kg s.c., 10 min): +48
resp. change ampl. ([8]; OS 0.01 mg/kg s.c., 30 min): +20
resp. change fr/min ([8]; OS 0.01 mg/kg s.c., 30 min): +51
resp. change ampl. [8, 19]: -16
resp. change fr/min [8, 19]: +24
resp. change ampl. [8, 20]: -20
resp. change fr/min [8, 20]: +13
resp. change ampl. [8, 21]: +20
resp. change fr/min [8, 21]: +48
resp. change ampl. ([8]; OS 0.025 mg/kg s.c., 30 min): +20
resp. change fr/min ([8]; OS 0.025 mg/kg s.c., 30 min): +51
resp. change ampl. ([8]; OS 0.05 mg/kg s.c., 10 min): +75
resp. change fr/min ([8]; OS 0.05 mg/kg s.c., 10 min): +50
resp. change ampl. [8, 22]: 0
resp. change fr/min [8, 22]: +10
resp. change ampl. ([8]; OS 0.50 mg/kg s.c., 10 min): 0
resp. change fr/min ([8]; OS 0.50 mg/kg s.c., 10 min): +36
respiration number (in words) ([8]; small doses): considerably increase the respiration number
ED50 ([1]; Rattus norvegicus, read-out: hot plate (rat) ED50): 0.58 mg/kg
ED50 ([2]; Rattus norvegicus, read-out: tail flick (rat) ED50): 0.35 mg/kg
ED500 % (dose increasing narcosis to five times the control) ([3]; rat, in vivo): 1,5 mg/kg
ED50 ([4]; Mus musculus, read-out: writhing test (mice) ED50): 0.15 mg/kg
Ki [10]: 588 nM
ED100 [11]: 5 mg/kg
